This is an account of results in patent US9616063B2, “1-[2-(aminomethyl)benzyl]-2-thioxo-1,2,3,5-tetrahydro-4H-pyrrolo[3,2-d]pyrimidin-4-ones as inhibitors of myeloperoxidase” (AstraZeneca AB, priority 2014, dated 2017).

One may read the IC50 as the midpoint of a concentration-inhibition curve.

Molecules are shown by their SMILES.

The target in test [1] is baculovirus-expressed recombinant human TPO (Homo sapiens (Human), UniProt P07202). Briefly: TPO inhibition (hypoiodous acid production, absorbance at 353 nm). The class given is biochemical. As to the method: To detect thyroid peroxidase (TPO) inhibitory activity, the production of hypoiodous acid (HOI) was quantified. HOI was detected by reacting it with methionine, which is converted to dehydro-methionine, which in turn is detected by reacting it with excess iodide at acidic pH. The reaction converts I^− to I3^− that has absorbance at 353 nm. In brief, 0.6 μL compound serially diluted in DMSO was added to 25 μL 50 nM baculovirus-expressed recombinant human TPO (obtained from RSR Ltd, Cardiff, UK) in assay buffer (100 mM Na2HPO4/NaH2PO4, pH 7.4), after which absorbance at 353 nm was read to obtain a blank value. The enzyme reaction was initiated by the addition of 25 μL of a mix consisting of 2 mM methionine, 20 μM NaI and 100 μM H2O2 in assay buffer, and stopped by the addition of 10 μL catalase, 0.25 mg/mL. […] IC50 values of the compounds tested were obtained using standard procedures.
Chain of baculovirus-expressed recombinant human TPO (P07202 19-933): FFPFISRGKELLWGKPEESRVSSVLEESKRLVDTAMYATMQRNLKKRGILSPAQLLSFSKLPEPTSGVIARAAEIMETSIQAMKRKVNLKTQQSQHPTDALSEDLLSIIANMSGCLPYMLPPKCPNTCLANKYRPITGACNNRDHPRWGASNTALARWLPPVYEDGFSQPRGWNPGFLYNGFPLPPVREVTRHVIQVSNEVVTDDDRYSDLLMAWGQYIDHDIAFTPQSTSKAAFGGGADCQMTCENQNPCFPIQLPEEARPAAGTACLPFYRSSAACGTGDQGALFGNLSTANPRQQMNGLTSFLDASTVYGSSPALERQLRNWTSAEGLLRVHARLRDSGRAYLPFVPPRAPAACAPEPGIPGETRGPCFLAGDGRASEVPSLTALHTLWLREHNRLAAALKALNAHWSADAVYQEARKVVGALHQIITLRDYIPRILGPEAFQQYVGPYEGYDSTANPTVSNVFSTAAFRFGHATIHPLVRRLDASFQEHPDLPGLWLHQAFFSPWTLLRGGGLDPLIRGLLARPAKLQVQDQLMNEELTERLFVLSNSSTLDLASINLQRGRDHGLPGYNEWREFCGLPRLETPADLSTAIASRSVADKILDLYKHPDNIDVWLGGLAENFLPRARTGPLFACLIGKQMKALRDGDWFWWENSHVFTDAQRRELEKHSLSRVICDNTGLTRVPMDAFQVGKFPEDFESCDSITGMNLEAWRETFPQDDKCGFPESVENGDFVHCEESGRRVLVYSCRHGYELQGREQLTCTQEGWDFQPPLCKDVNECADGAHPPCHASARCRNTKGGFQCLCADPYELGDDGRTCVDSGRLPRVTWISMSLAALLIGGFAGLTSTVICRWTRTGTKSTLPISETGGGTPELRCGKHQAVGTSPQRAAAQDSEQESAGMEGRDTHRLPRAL

Test [2] addresses MPO purified from the human cell line HL60 (Homo sapiens (Human), UniProt P05164). Nature of the test: MPO inhibition, Test A (loss of ascorbate, absorbance at 260 nm). The class given is biochemical. The note with it: absorbance at 260 nm 20 minutes after substrate addition. On the procedure: (§1) Methods for the determination of MPO inhibitory activity are disclosed in WO 02/090575. The pharmacological activity of compounds disclosed herein was tested in the following screen (Test A) in which the compounds were tested in the presence of ascorbate, which reacts with MPO-derived hypochlorous acid (HOCl) to form dehydro-ascorbate. The loss of ascorbate is followed by measuring absorbance at 260 nm.
(§2) Assay buffer: 100 μM diethyl triamine pentaacetic acid (DTPA) in buffer consisting of 10 mM Na2HPO4/NaH2PO4, 3 mM KCl in 140 mM NaCl, pH 7.4.
(§3) Enzyme solution: MPO purified from the human cell line HL60, 1.38 nM (final concentration 0.7 nM) and L-ascorbate, 100 μM (final concentration 50 μM) in Assay buffer
(§4) Substrate solution: H2O2, 98 μM (final concentration 49 μM) Forty μL of the enzyme solution was added to 0.6 μL compound serially diluted in DMSO. Absorbance was measured at 260 nm to obtain a compound blank value. After an additional 10 min, 40 μL of the substrate solution was added and the absorbance at 260 nm was recorded between 4 and 40 min to obtain kinetic readings of enzyme activity.

Test [3] relates to MPO purified from the human cell line HL60. Described as above. The class given is biochemical. Conditions: ratio TPO to MPO, selectivity for MPO over TPO. As to the method:
as §1, §2, §3, §4

The nature of test [4]: Plasma urate levels in Healthy Volunteers after MPO inhibitor treatment (clinical trial). The class given is in vivo, human. Conditions: daily dose for 10 days, FIG. 2, NCT00914303. As to the method:
Subjects received placebo or the indicated daily dose for 10 days, and the difference in plasma urate levels versus baseline was calculated. Each symbol represents one subject.

The conditions of test [5]: healthy subjects, clinical trial, data not shown; cited from earlier work.
The target in another test is activated MPO (Homo sapiens (Human), UniProt P05164). Nature of the test: Urate production from xanthine by activated MPO in vitro (LC-MS). The class given is biochemical. Conditions: activated MPO incubated with xanthine and titrated compound for 80 min. From the text: The dotted line represents the urate formed in the presence of unactivated MPO.
Chain of activated MPO (P05164 49-745): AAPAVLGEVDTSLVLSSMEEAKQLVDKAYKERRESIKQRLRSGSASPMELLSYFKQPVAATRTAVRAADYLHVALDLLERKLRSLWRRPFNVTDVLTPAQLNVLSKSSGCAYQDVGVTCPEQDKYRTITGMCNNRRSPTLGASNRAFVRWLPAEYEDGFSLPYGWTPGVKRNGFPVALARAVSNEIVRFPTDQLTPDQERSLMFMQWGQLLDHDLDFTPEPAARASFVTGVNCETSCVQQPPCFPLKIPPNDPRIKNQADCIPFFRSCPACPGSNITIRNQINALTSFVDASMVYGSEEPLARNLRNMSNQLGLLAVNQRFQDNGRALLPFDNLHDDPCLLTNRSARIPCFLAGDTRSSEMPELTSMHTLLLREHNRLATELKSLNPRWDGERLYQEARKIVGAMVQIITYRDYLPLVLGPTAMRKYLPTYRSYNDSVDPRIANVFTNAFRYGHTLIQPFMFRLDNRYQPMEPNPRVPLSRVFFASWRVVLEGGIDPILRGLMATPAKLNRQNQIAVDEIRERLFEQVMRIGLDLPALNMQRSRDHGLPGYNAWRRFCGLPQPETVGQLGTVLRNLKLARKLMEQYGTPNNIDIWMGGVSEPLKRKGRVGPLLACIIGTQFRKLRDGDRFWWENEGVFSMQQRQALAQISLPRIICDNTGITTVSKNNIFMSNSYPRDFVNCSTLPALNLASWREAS
In addition to MPOs role in maintaining elevated urate levels due to poor perfusion as discussed above, we also propose that MPO per se may generate urate by oxidizing xanthine in concert with xanthine oxidase.

Chain of MPO purified from the human cell line HL60 (Homo sapiens (Human), UniProt P05164) (P05164 whole entry, looked up, change not shown): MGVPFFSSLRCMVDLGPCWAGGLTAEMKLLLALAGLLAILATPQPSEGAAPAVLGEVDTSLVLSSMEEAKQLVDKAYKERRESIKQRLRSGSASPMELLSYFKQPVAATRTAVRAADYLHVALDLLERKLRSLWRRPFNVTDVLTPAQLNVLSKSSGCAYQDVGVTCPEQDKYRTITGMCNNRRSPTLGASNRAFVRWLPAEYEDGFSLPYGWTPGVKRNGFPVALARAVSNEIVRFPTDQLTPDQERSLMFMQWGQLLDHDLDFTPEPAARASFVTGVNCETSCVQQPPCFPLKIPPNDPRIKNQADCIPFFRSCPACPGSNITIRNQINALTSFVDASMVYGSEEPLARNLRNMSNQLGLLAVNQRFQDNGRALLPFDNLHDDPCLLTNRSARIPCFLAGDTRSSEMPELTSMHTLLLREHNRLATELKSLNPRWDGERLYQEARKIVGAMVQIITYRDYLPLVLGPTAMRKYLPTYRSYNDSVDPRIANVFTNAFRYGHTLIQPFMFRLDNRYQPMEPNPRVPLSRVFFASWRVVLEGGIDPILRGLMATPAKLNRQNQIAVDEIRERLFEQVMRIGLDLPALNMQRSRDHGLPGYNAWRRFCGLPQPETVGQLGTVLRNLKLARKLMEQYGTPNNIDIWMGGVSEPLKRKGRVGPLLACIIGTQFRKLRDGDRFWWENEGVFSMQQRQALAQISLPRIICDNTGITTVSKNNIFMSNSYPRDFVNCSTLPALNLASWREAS
Chain of MPO purified from the human cell line HL60 (Homo sapiens (Human), UniProt P05164) (P05164 whole entry, looked up, change not shown): as above

`O=c1[nH]c(=S)n(Cc2ccccc2CNC2CCCC2)c2cc[nH]c12` [Example 11, 1-{2-[(Cyclopentylamino)methyl]benzyl}-2-thioxo-1,2,3,5-tetrahydro-4H-pyrrolo[3,2-d]pyrimidin-4-one]: the half-maximal inhibitory concentration (IC50) in test [1] turned out to be 19 µM; in test [2], 0.014 µM. Further, the “IC50 (TPO)/IC50 (MPO)” value in test [3] was determined as 1357.
Regarding `CNCc1cc(C(F)(F)F)ccc1Cn1c(=S)[nH]c(=O)c2[nH]ccc21` [Example 15, 1-{2-[(Methylamino)methyl]-4-(trifluoromethyl)benzyl}-2-thioxo-1,2,3,5-tetrahydro-4H-pyrrolo[3,2-d]pyrimidin-4-one], the concentration for half-maximal inhibition (IC50) in test [1] came to 11 µM; in test [2], 0.049 µM. Moreover, the “IC50 (TPO)/IC50 (MPO)” value in test [3] stood at 224.
Regarding `CC(C)OCCn1c(=S)[nH]c(=O)c2[nH]ccc21` [AZD3241], the “reduction of plasma urate levels versus baseline” value in test [4] is “dose-dependently reduced urate levels”.
As for `CC(N)c1cc(Cl)ccc1Cn1c(=S)[nH]c(=O)c2[nH]ccc21` (racemic) [Example 2, 1-[2-(1-Aminoethyl)-4-chlorobenzyl]-2-thioxo-1,2,3,5-tetrahydro-4H-pyrrolo[3,2-d]pyrimidin-4-one], the 50% inhibitory concentration (IC50) in test [1] was found to be 8.8 µM.
Consider `O=c1[nH]c(=S)n(C[C@H]2CCCO2)c2nc[nH]c12` [AZD5904], for which the “reduction of urate levels” value in test [5] was “dose-dependently reduced urate levels”.
For the compound `NCc1cc(C(F)(F)F)ccc1Cn1c(=S)[nH]c(=O)c2[nH]ccc21` [Example 14, 1-[2-(Aminomethyl)-4-(trifluoromethyl)benzyl]-2-thioxo-1,2,3,5-tetrahydro-4H-pyrrolo[3,2-d]pyrimidin-4-one], the results for the IC50 in test [1] and in test [2] were 28 µM and 0.04 µM, respectively. In test [3], the “IC50 (TPO)/IC50 (MPO)” value was 697.
In the case of `NCc1cc(Cl)ccc1Cn1c(=S)[nH]c(=O)c2[nH]ccc21` [Example 7, 1-[2-(Aminomethyl)-4-chlorobenzyl]-2-thioxo-1,2,3,5-tetrahydro-4H-pyrrolo[3,2-d]pyrimidin-4-one], the concentration for half-maximal inhibition (IC50) in test [1] came out at 11 µM.
Consider `CC[C@@H](N)c1cc(Cl)ccc1Cn1c(=S)[nH]c(=O)c2[nH]ccc21` [Example 1, 1-{2-[(1R)-1-Aminopropyl]-4-chlorobenzyl}-2-thioxo-1,2,3,5-tetrahydro-4H-pyrrolo[3,2-d]pyrimidin-4-one], for which the 50% inhibitory concentration (IC50) turned out to be 4.4 µM in test [1] and 0.0086 µM in test [2]. The “IC50 (TPO)/IC50 (MPO)” value in test [3] turned out to be 512.
Regarding `CCNCc1cc(Cl)ccc1Cn1c(=S)[nH]c(=O)c2[nH]ccc21` [Example 6, 1-{4-Chloro-2-[(ethylamino)methyl]benzyl}-2-thioxo-1,2,3,5-tetrahydro-4H-pyrrolo[3,2-d]pyrimidin-4-one], the IC50 in test [1] worked out at 10 µM; in test [2] it was 0.022 µM. Further, the “IC50 (TPO)/IC50 (MPO)” value in test [3] was 455.
As to `O=c1[nH]c(=S)n(Cc2ccccc2CNC2CCC2)c2cc[nH]c12` [Example 10, 1-{2-[(Cyclobutylamino)methyl]benzyl}-2-thioxo-1,2,3,5-tetrahydro-4H-pyrrolo[3,2-d]pyrimidin-4-one], the IC50 came out at 11 µM in test [1] and 0.01 µM in test [2]. Also, the “IC50 (TPO)/IC50 (MPO)” value in test [3] amounted to 1100.
`CNC(C)c1cc(Cl)ccc1Cn1c(=S)[nH]c(=O)c2[nH]ccc21` (stereo not shown) [Example 5, 1-{4-Chloro-2-[1-(methylamino)ethyl]benzyl}-2-thioxo-1,2,3,5-tetrahydro-4H-pyrrolo[3,2-d]pyrimidin-4-one]: the IC50 in test [1] turned out to be 8.9 µM; in test [2], 0.019 µM. In addition, in test [3], the “IC50 (TPO)/IC50 (MPO)” value is recorded as 468.
Consider `C[C@H](N)c1cc(Cl)ccc1Cn1c(=S)[nH]c(=O)c2[nH]ccc21` [Example 4b, 1-{2-[(1S)-1-Aminoethyl]-4-chlorobenzyl}-2-thioxo-1,2,3,5-tetrahydro-4H-pyrrolo[3,2-d]pyrimidin-4-one], for which, in test [1], the 50% inhibitory concentration (IC50) stood at 68 µM.
With `O=c1[nH]c(=S)n(Cc2ccccc2CNCC2CCC2)c2cc[nH]c12` [Example 9, 1-(2-{[(Cyclobutylmethyl)amino]methyl}benzyl)-2-thioxo-1,2,3,5-tetrahydro-4H-pyrrolo[3,2-d]pyrimidin-4-one], the concentration for half-maximal inhibition (IC50) was determined as 16 µM in test [1] and 0.029 µM in test [2]. The “IC50 (TPO)/IC50 (MPO)” value in test [3] is 552.
In the case of `CC(C)CNCc1ccccc1Cn1c(=S)[nH]c(=O)c2[nH]ccc21` [Example 12, 1-(2-{[(2-Methylpropyl)amino]methyl}benzyl)-2-thioxo-1,2,3,5-tetrahydro-4H-pyrrolo[3,2-d]pyrimidin-4-one], the results for the IC50 in test [1] and in test [2] were 46 µM and 0.054 µM, respectively. Besides, in test [3], the “IC50 (TPO)/IC50 (MPO)” value came to 852.
For `CC(C)NCc1ccccc1Cn1c(=S)[nH]c(=O)c2[nH]ccc21` [Example 13, 1-{2-[(Propan-2-ylamino)methyl]benzyl}-2-thioxo-1,2,3,5-tetrahydro-4H-pyrrolo[3,2-d]pyrimidin-4-one], the IC50 in test [1] is 38 µM; in test [2] it was 0.024 µM. Also, in test [3], the “IC50 (TPO)/IC50 (MPO)” value is on record as 1609.
For `CNCc1cc(Cl)ccc1Cn1c(=S)[nH]c(=O)c2[nH]ccc21` [Example 8, 1-{4-Chloro-2-[(methylamino)methyl]benzyl}-2-thioxo-1,2,3,5-tetrahydro-4H-pyrrolo[3,2-d]pyrimidin-4-one], the 50% inhibitory concentration (IC50) in test [1] amounted to 13 µM; in test [2] it was 0.013 µM. Further, the “IC50 (TPO)/IC50 (MPO)” value in test [3] was determined as 952.
Consider `C[C@@H](N)c1cc(Cl)ccc1Cn1c(=S)[nH]c(=O)c2[nH]ccc21` [Example 3, 1-{2-[(1R)-1-Aminoethyl]-4-chlorobenzyl}-2-thioxo-1,2,3,5-tetrahydro-4H-pyrrolo[3,2-d]pyrimidin-4-one], for which the IC50 in test [1] is 4.3 µM. Besides, the “inhibition of urate production by activated MPO” value against activated MPO is given as “concentration-dependently inhibited”.
